Reference: patent publication US8410309B2, “Phenoxy carboxylic acid compounds and compositions for delivering active agents” (Emisphere Technologies, Inc., priority 1999, dated 2013)
Values joined by “and” are separate entries in the source; they are usually repeats but may differ in a detail not shown here. Equal entries are not always repeated.

Legend:
[1] = Heparin oral/intracolonic delivery, clotting time by activated partial thromboplastin time (APTT); format: in vivo, Sprague-Dawley rats; conditions: IC (intracolonic), rats; delivery agent compound 50 mg/kg, heparin 25 mg/kg, volume dose 1 ml; baseline about 20 seconds
Experimental: Oral gavage (PO) and/or intracolonic (IC) dosing solutions containing a delivery agent compound and heparin sodium USP were prepared in 25% aqueous propylene glycol. […] This dry mixture was dissolved in 25% v/v aqueous propylene glycol, vortexed, and placed in a sonicator (about 37° C.). The pH was adjusted to about 7 (6.5 to 8.5) with aqueous NaOH (2N). The dosing solution was sonicated to produce a clear solution. The final volume was adjusted to about 3.0 ml.
(§1) The typical dosing and sampling protocols were as follows. […] The dosing solution was expressed slowly into the colon by pressing the syringe plunger.
Citrated blood samples were collected by cardiac puncture following the administration of ketamine (88 mg/kg), typically at 0.25, 0.5, 1.0 and 1.5 hours after dosing. Heparin absorption was verified by an increase in clotting time measured by the activated partial thromboplastin time (APTT) according to the method of Henry, J. B., Clinical Diagnosis and Management by Laboratory Methods, Philadelphia, Pa., W.B. Saunders (1979). Previous studies indicated baseline values of about 20 seconds.

[2] = Salmon calcitonin (sCT) oral delivery, serum sCT by EIA; conditions: rats, delivery agent compound dose 150 mg/kg, sCT dose 30 μg/kg
Experimental: Oral dosing (PO) compositions of a delivery agent compound and salmon calcitonin (sCT) in deionized water were prepared as described in Table 2 below. […] Either the sodium salt of the compound was used or the free acid was converted to the sodium salt by stirring the resultant solution and adding one equivalent of sodium hydroxide (1.0 N) and diluting with water. The solution was vortexed, then heated (about 37° C.) and sonicated. The pH was adjusted to about 7 (about 6.5 to 8.5) with NaOH or HCl. 90 μg sCT from a sCT stock solution (2 mg/ml made by adding 10001 pH 4 phosphate buffer to sCT and allowing it to go into solution by sitting for about 10-20 minutes and periodically gently inverting) was added to the solution.
The typical dosing and sampling protocols were as follows. Male Sprague-Dawley rats weighing between 200-250 g were fasted for 24 hours and administered ketamine (44 mg/kg) and chlorpromazine (1.5 mg/kg) 15 minutes prior to dosing and again as needed to maintain anesthesia. A dosing group of five animals was administered one of the dosing solutions. For oral dosing, an 11 cm Rusch 8 French catheter was adapted to a 1 ml syringe with a pipette tip. The syringe was filled with dosing solution by drawing the solution through the catheter, which was then wiped dry. The catheter was placed down the esophagus leaving 1 cm of tubing past the incisors. Solution was administered by pressing the syringe plunger.
Blood samples were collected serially from the tail artery, typically at time=0, 10, 20, 30, 60 and 90 minutes. […] Numbers were adjusted according to baseline values obtained at time=0. The results from the animals in each dosing group were averaged for each time point.

[3] = Recombinant human growth hormone (rhGH) oral delivery, serum rhGH by immunoassay; conditions: oral gavage, rats, volume dose 1 ml
Experimental: Oral gavage (PO) dosing solutions of delivery agent compound and rhGH in phosphate buffer were prepared by mixing. A solution of the delivery agent compound was made either with the sodium salt of the delivery agent compound or by converting the free acid to its sodium salt.
The typical dosing and sampling protocols were as follows. Male Sprague-Dawley rats weighing 200-250 g were fasted for 24 hours and administered ketamine (44 mg/kg) and chlorpromazine (1.5 mg/kg) 15 minutes prior to dosing and again as needed to maintain anesthesia. A dosing group of five animals was administered one of the dosing solutions. An 11 cm Rusch 8 French catheter was adapted to a 1 ml syringe with a pipette tip. The syringe was filled with dosing solution by drawing the solution through the catheter, which was then wiped dry. The catheter was placed down the esophagus leaving 1 cm of tubing past the incisors. The dosing solution was administered by pressing the syringe plunger.
Blood samples were collected serially from the tail artery typically at time=15, 30, 45, 60 and 90 minutes. The five samples from each time period were pooled (except for those samples for which standard deviation (SD) and standard error (SE) are reported). Serum rHGH concentrations were quantified by an rHGH immunoassay test kit (Kit # K1F4015 from Genzyme Corporation Inc., Cambridge, Mass.).

[4] = Low molecular weight heparin (LMWH) oral/intracolonic delivery, plasma LMWH by anti-Factor Xa assay; format: in vivo, Sprague-Dawley rats; conditions: IC, rats, LMWH 750 IU/kg, 1 ml/kg
Experimental: Oral dosing (PO) and/or intracolonic (IC) compositions containing a delivery agent compound and low molecular weight heparin (LMWH) were prepared in 25% aqueous propylene glycol. […] Typically, the delivery agent compound and LMWH (Parnaparin, 91 IU/mg average molecular weight about 5,000, available from Opocrin, Modena, Italy) (typically 90-105 IU/mg, average molecular weight about 5,000) were mixed by vortex as dry powders. This dry mixture was dissolved in 25% v/v aqueous propylene glycol, vortexed, and placed in a sonicator (37° C.) to produce a clear solution. The pH was adjusted to about 7 (6.5-8.5) with 2N aqueous NaOH. The dosing solution was sonicated to produce a clear solution. The final volume was adjusted to 3.0 ml.
as §1
Citrated blood samples were collected by cardiac puncture following the administration of ketamine (88 mg/kg), typically at 0.5, 1.0, 2.0, 3.0 and 4.0 hours after dosing. LMWH absorption was verified by an increase in plasma LMWH measured by the anti-Factor Xa assay CHROMOSTRATE™ Heparin anti-Xa assay (available from Organon Teknika Corporation, Durham, N.C.). […] The peak of these mean plasma LMWH concentrations is reported below in Table 5.

[5] = Insulin oral delivery, serum human insulin by ELISA; conditions: rats
Experimental: Oral dosing (PO) compositions of delivery agent compound and human zinc insulin (minimum 26 IU/mg available from Calbiochem—Novabiochem Corp, La Jolla, Calif.) were prepared in deionized water. […] The pH was adjusted to about 7 to 8.5 with NaOH or HCl. […] The final delivery agent compound dose, insulin dose and dose volume amounts are listed below in Table 8.
The typical dosing and sampling protocols were as follows.
Serum insulin levels were determined with an Insulin ELISA Test Kit (Kit # DSL-10-1600 from Diagnostic Systems Laboratories, Inc., Webster, Tex.), modifying the standard protocol in order to optimize the sensitivity and linear range of the standard curve for the volumes and concentrations of the samples used in the present protocol. […] The five values for each time point were averaged and the results plotted as serum insulin concentration versus time.

[6] = delivery agent compound 200 mg/kg, rhGH 3 mg/kg
[7] = delivery agent compound 50 mg/kg
[8] = delivery agent compound 200 mg/kg, insulin 0.5 mg/kg, 1 ml/kg
[9] = delivery agent compound 200 mg/kg, insulin 3 mg/kg, 1 ml/kg

| SMILES | Mean Peak Serum sCT (pg/ml ± SD) (SE) ([2]; dose volume 1 (ml)) | Mean Peak Serum [rhGH] [3, 6] | Mean Peak APTT ± SD [1] | further results |
| --- | --- | --- | --- | --- |
| CC=Cc1ccccc1OCCCCCCCC(=O)O [Compound 18] | – | 223 ng/mL | – | Mean Peak Serum sCT (pg/ml ± SD) (SE) ([2]; dose volume 2 (ml)): 14 ± 4183 pg/mL; Mean Peak Serum [rhGH] ([3]; delivery agent compound 162 mg/kg, rhGH 2.6 mg/kg): 3.1 ng/mL |
| Nc1ccccc1OCCCCCCCC(=O)O [Compound 19] | – | 39.5 ng/mL | – | Mean Peak Plasma LMWH Concentration ± SD [4, 7]: 0.65 ± 0.37 IU/ml; Mean Peak Serum [INS] ± SD [5, 8]: 4.32 ± 1.39 μU/ml |
| O=C(O)CCCCOc1ccccc1C(F)(F)F [Compound 76] | – | – | – | Mean Peak Serum [INS] ± SD [5, 8]: 24.72 ± 25.53 μU/ml and 38.74 ± 74.4 μU/ml |
| CCC(=O)c1ccccc1OCCCCCCCC(=O)O [Compound 28] | 138 ± 90 pg/mL | – | 143.6 ± 44 s and 251.1 ± 109.34 s | Mean Peak Plasma LMWH Concentration ± SD ([4]; delivery agent compound 25 mg/kg): 1.43 ± 0.31 IU/ml; Mean Peak Plasma LMWH Concentration ± SD [4, 7]: 1.64 ± 0.45 IU/ml |
| O=C(O)CCCCCCCOc1cccc(Cl)c1 [Compound 68] | – | – | – | Mean Peak Serum [INS] ± SD [5, 9]: 76.23 ± 76.88 μU/ml |
| CC(O)c1ccccc1OCCCCCCCC(=O)O (stereo not shown) [Compound 36] | 0 ± 62 pg/mL | 0 ng/mL | – | – |
| CC(=O)c1ccccc1OCCCC(=O)O [Compound 9] | – | 1 ng/mL | 21.45 ± 1.71 s | Mean Peak Plasma LMWH Concentration ± SD [4, 7]: 0.474 ± 0.095 IU/ml |
| O=C(O)CCCCCCCOc1ccccc1Cl [Compound 73] | – | – | – | Mean Peak Serum [INS] ± SD ([5]; delivery agent compound 100 mg/kg, insulin 3 mg/kg, 0.5 ml/kg): 147.66 ± 176.71 μU/ml |
| CNC(=O)c1ccccc1OCCCCCCCCCC(=O)O [Compound 51] | – | – | 92.5 ± 41.5 s | – |
| CCC(=O)c1ccccc1OCCCCCC(=O)O [Compound 27] | 163 ± 106 pg/mL | 12.9 ng/mL | – | Mean Peak Plasma LMWH Concentration ± SD [4, 7]: 1.622 ± 0.265 IU/ml |
| O=C(O)CCCCCCCOc1ccccc1[N+](=O)[O-] [Compound 20] | – | 22.6 ng/mL | – | Mean Peak Serum sCT (pg/ml ± SD) (SE) ([2]; dose volume 1 (ml), 150 mg/kg): 138 ± 107 pg/mL and 85 ± 82 pg/mL and 96 ± 135 pg/mL; Mean Peak Serum [INS] ± SD [5, 8]: 27.68 ± 12.5 μU/ml |
| O=C(O)CCCCCCCCCOc1ccccc1O [Compound 8] | – | 4.88 ng/mL | 251.94 ± 67.96 s | Mean Peak Serum sCT (pg/ml ± SD) (SE) ([2]; dose volume 1 (ml), 150 mg/kg): 166 ± 190 pg/mL and 194 ± 239 pg/mL and 327 ± 323 pg/mL; Mean Peak Serum sCT (pg/ml ± SD) (SE) ([2]; dose volume 2 (ml)): 36 ± 49 pg/mL; Mean Peak Serum [INS] ± SD [5, 8]: 13.14 ± 6.81 μU/ml |

Continued, in another order:

| Mean Peak Serum sCT (pg/ml ± SD) (SE) ([2]; dose volume 1 (ml)) | Mean Peak Serum [rhGH] [3, 6] | SMILES | Mean Peak APTT ± SD [1] | further results |
| --- | --- | --- | --- | --- |
| 117 ± 158 pg/mL | 6.2 ng/mL | CC(=O)c1ccc(OCCCCCCCC(=O)O)cc1 [Compound 62] | 152.41 ± 136.63 s and 91.204 ± 117.43 s | – |
| – | 12.4 ng/mL | COc1ccc(OCCCCCCCC(=O)O)c(C(C)=O)c1 [Compound 55] | – | – |
| 163 ± 300 pg/mL | 0 ng/mL | NC(=O)c1ccccc1OCc1ccc(C(=O)O)cc1 [Compound 52] | – | – |
| – | 28 ng/mL | O=C(O)CCCCCCCCCCOc1ccccc1O [Compound 72] | – | Mean Peak Serum [INS] ± SD [5, 9]: 4702.5 ± 4700.4 μU/ml |
| 138 ± 148 pg/mL | 5 ng/mL | CC(=O)c1cccc(OCCCCCCCC(=O)O)c1 [Compound 64] | 220.988 ± 122.2 s and 125.372 ± 114.72 s | – |
| – | 0 ng/mL | COc1cccc(OCCCCCCCC(=O)O)c1C(C)=O [Compound 39] | – | Mean Peak Serum sCT (pg/ml ± SD) (SE) ([2]; dose volume 1 (ml), 150 mg/kg): 115 ± 120 pg/mL and 115 ± 178 pg/mL |
